US10555987B2, “GHRH agonists for the treatment of ischemic disorders” (UNIVERSITY OF MIAMI, priority 2012, dated 2020)
Non-standard residues stand in square brackets, D forms with d. Residues, ends and D or L forms follow the SMILES beside them. Phe(F5) = N[C@@H](Cc1c(F)c(F)c(F)c(F)c1F)C(=O)O; NMeY = CN[C@@H](Cc1ccc(O)cc1)C(=O)O; Nle = CCCC[C@H](N)C(=O)O; Orn = NCCC[C@H](N)C(=O)O; Abu = CC[C@H](N)C(=O)O

Tests used:
[1] = tested on: GH release; test: In vivo endocrine activity, GH release after subcutaneous administration (Table 9); settings: rat; for GH releasing potency relative to JI-38 (=1): subcutaneous (s.c.) injection
Description: Subcutaneous Administration. Adult male rats were used and anesthetized with pentobarbital (6 mg/100 g, b.w.), by i.p. injection. […] Blood samples were taken from the jugular vein 5, 15 and/or 30 minutes after the injection. The blood samples were centrifuged, plasma was removed and the GH level was measured byELISA. The results are summarized in terms of potency in Table 9.

[2] = tested on: myocardial infarction (Fisher-344 rats); test: Serial echocardiography after MI, compared to JI-38 (Example 15, Table 15); type: in vivo, rat; parameters: key to LVEDD: Left Ventricular End Diastolic Diameter / LVESD: Left Ventricular End Systolic Diameter / VD: Ventricular Diastole / VS: Ventricular Systole / EF: Ejection Fraction / FS: Fraction Shortening: ↓: downward arrow denotes lower than JI-38; ↑: upward arrow denotes greater than JI-38; =denotes same as JI-38; ⬇⬇: double arrow denotes greater effect; ⬆⬆: double arrow denotes greater effect; settings: in comparison to JI-38
How it was run: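 Female 6-month-old Fisher-344 rats with permanent left coronary artery ligation received placebo, JI-38 or GHRH agonists subcutaneously twice daily from 2 h post-surgery (10 per group). Under 2% isoflurane, M-mode LVEDD, LVESD and FS plus long-axis EF were measured at baseline, 2 days, 1, 2 and 4 weeks.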

[3] = tested on: myocardial infarction (Fisher-344 rats); test: Hemodynamic analysis (pressure-volume loops), body and heart weight after MI, compared to JI-38 (Example 15, Table 16); type: in vivo, rat; parameters: key to ESP (End-Systolic Pressure) / EDP (End-Diastolic Pressure) / ESV (End-Systolic Volume) / PRSW (Preload Recruitable Stroke Work) / Ees (End-systolic Elastance) / dP/dt max (peak rate of the pressure rise) / dP/dt max_EDV / dP/dt min / TAU (relaxation time constant calculated by Weiss method) / SV (Stroke Volume) / CO (Cardiac Output) / SW (Stroke Work) / EF / Ea/Ees / Ea (arterial Elastance): ↓: downward arrow denotes lower than JI-38; ↑: upward arrow denotes greater than JI-38; =denotes same as JI-38; ⬇⬇: double arrow denotes greater effect; ⬆⬆: double arrow denotes greater effect; settings: rat MI model, s.c. twice daily; pressure-volume loops; expressed in comparison to JI-38
How it was run: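 Female 6-month-old Fisher-344 rats after permanent left coronary ligation received GHRH agonists subcutaneously twice daily from 2 h post-surgery (n=10/group). Under ketamine/xylazine/acepromazine anesthesia, LV pressure-volume loops were recorded via carotid micromanometer catheter, calibrated by hypertonic saline bolus and cuvette method; echocardiography also serial.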

[4] = tested on: GH release; test: GH releasing potency in vivo, subcutaneous administration (Example 14, Table 12); parameters: species or system rat; settings: s.c.
How it was run: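 Potency is expressed relative to GHRH(1-29)NH2 and JI-38 (each = 1), via equivalent GHRH(1-29)NH2 dose read from a standard curve. Peptides in 5% mannitol given i.v. or s.c. to anaesthetised male Sprague-Dawley rats (200-250 g); serum GH measured by ELISA at selected times.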

SMILES: CCCC[C@H](NC(=O)[C@@H](NC(=O)[C@H](CC(=O)O)NC(=O)[C@H](CCC(N)=O)NC(=O)[C@H](CC(C)C)NC(=O)[C@H](CC(C)C)NC(=O)[C@H](CCCN)NC(=O)[C@H](CCCNC(=N)N)NC(=O)[C@H](C)NC(=O)[C@H](CO)NC(=O)[C@H](CC(C)C)NC(=O)[C@H](CCC(N)=O)NC(=O)[C@H](CC)NC(=O)[C@H](CC(C)C)NC(=O)[C@@H](NC(=O)[C@H](CCCN)NC(=O)[C@H](CCCNC(=N)N)NC(=O)[C@H](Cc1ccc(O)cc1)NC(=O)[C@H](CO)NC(=O)[C@H](CCC(N)=O)NC(=O)[C@@H](NC(=O)[C@H](Cc1c(F)c(F)c(F)c(F)c1F)NC(=O)[C@@H](NC(=O)[C@H](C)NC(=O)[C@H](CC(=O)O)NC(=O)[C@@H](C)NC(=O)[C@H](Cc1ccc(O)cc1)NC)[C@@H](C)CC)[C@@H](C)O)C(C)C)[C@@H](C)CC)C(=O)N[C@@H](CC(=O)O)C(=O)N[C@@H](CCCNC(=N)N)C(=O)NC [Peptide P-27404, [N—Me-Tyr^1, D-Ala^2, Fpa5^6, Orn^12, Abu^15, Orn^21, Nle^27, Asp^28]hGHRH (1-29)NH—CH3] (H-[NMeY][dA]DAI[Phe(F5)]TQSYR[Orn]VL[Abu]QLSAR[Orn]LLQDI[Nle]DR-NHMe)
- Stimulation of growth hormone levels after subcutaneous administration (in words) ([1]; s.c.): stimulated greater growth hormone levels than hGHRH or JI-38
- GH releasing potency relative to JI-38 (=1) ([1]; 15 min after): 2.07
- GH releasing potency relative to JI-38 (=1) ([1]; 30 min after): 1.47
- EF: Ejection Fraction [2]: =
- FS: Fraction Shortening [2]: =
- LVEDD: Left Ventricular End Diastolic Diameter [2]: ↑
- LVESD: Left Ventricular End Systolic Diameter [2]: =
- VD: Ventricular Diastole [2]: ↑
- VS: Ventricular Systole [2]: ↑
- CO (Cardiac Output) [3]: ↑
- EDP (End-Diastolic Pressure) [3]: ↑
- EF [3]: ↑
- ESP (End-Systolic Pressure) [3]: =
- ESV (End-Systolic Volume) [3]: =
- Ea (arterial Elastance) [3]: =
- Ea/Ees [3]: =
- Ees (End-systolic Elastance) [3]: =
- PRSW (Preload Recruitable Stroke Work) [3]: =
- SV (Stroke Volume) [3]: ↑
- SW (Stroke Work) [3]: =
- TAU (relaxation time constant calculated by Weiss method) [3]: =
- dP/dt max (peak rate of the pressure rise) [3]: =
- dP/dt max_EDV [3]: =
- dP/dt min [3]: =
- Serum GH level at selected time after injection (ng/ml), 0 min ([4]; male rats, dose 3 μg/kg, 0 min, mean ± SEM): 29.5 ± 3.2 ng/mL
- Serum GH level at selected time after injection (ng/ml), 15 min ([4]; male rats, dose 3 μg/kg, 15 min, mean ± SEM): 320.5 ± 32.7 ng/mL
- Serum GH level at selected time after injection (ng/ml), 30 min ([4]; male rats, dose 3 μg/kg, 30 min, mean ± SEM): 151 ± 28.5 ng/mL
- Relative potency compared to GHRH(1-29), 15 min ([4]; 15 min): 97.1
- Relative potency compared to JI-38, 15 min ([4]; 15 min): 1.54
- Relative potency compared to GHRH(1-29), 30 min ([4]; 30 min): 148.4
- Relative potency compared to JI-38, 30 min ([4]; 30 min): 1.33
